US5457105A, “Quinazoline derivatives useful for treatment of neoplastic disease” (Zeneca Limited, priority 1992, dated 1995)

Columns and labels:
receptor tyrosine kinase = target: T1, receptor tyrosine kinase (Homo sapiens, UniProt P00533); test: Test (a): in vitro inhibition of the enzyme receptor tyrosine kinase (from A-431 cells); format: biochemical; details: EGF, 25° C., 10 minutes
T1 construct: obtained in partially purified form from A-431 cells; endogenous in cells; host or cells: A-431 cells (human vulval carcinoma); detergent-solubilised membrane fraction
T1 sequence (P00533 25-1210): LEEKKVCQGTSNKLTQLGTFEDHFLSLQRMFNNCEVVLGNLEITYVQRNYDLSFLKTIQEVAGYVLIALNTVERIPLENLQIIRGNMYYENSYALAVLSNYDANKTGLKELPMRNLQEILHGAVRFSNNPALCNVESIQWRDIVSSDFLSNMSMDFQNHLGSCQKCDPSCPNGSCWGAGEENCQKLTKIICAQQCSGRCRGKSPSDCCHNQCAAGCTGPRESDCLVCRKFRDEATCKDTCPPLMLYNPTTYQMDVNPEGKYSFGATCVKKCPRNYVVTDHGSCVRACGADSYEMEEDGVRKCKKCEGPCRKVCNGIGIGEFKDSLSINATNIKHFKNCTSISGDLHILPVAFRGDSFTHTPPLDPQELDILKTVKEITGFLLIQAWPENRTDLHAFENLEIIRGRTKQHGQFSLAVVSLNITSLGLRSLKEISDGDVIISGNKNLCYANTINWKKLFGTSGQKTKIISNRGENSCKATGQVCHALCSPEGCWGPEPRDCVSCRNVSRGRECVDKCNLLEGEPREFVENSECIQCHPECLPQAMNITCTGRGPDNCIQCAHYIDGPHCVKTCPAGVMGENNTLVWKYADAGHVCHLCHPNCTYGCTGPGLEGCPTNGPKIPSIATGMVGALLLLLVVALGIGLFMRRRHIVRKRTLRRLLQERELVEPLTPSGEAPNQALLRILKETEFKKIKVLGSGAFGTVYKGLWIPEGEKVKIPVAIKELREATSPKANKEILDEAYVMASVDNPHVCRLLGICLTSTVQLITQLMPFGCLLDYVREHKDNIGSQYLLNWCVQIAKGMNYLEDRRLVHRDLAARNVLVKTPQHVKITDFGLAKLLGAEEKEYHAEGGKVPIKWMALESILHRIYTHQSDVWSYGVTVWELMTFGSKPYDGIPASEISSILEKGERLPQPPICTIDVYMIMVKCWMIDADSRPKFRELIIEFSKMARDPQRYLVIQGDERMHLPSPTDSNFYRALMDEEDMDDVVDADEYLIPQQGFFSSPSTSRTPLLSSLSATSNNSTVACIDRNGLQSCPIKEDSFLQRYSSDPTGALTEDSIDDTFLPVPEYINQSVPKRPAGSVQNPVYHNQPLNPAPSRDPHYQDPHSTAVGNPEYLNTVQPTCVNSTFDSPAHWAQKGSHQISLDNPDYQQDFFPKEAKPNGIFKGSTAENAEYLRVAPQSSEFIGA
Description: (a) An in vitro assay which determines the ability of a test compound to inhibit the enzyme receptor tyrosine kinase. Receptor tyrosine kinase was obtained in partially purified form from A-431 cells (derived from human vulval carcinoma) by procedures related to those described by Carpenter et al., J. Biol. Chem., 1979, 254, 4884, Cohen et al., J. Biol. Chem., 1982, 257, 1523 and by Braun et al., J. Biol. Chem., 1984, 259, 2051.
A-431 cells were grown to confluence using Dulbecco's modified Eagle's medium (DMEM) containing 5% fetal calf serum (FCS). The obtained cells were homogenised in a hypotonic borate/EDTA buffer at pH 10.1. The homogenate was centrifuged at 400 g for 10 minutes at 0°-4° C. The supernatant was centrifuged at 25,000 g for 30 minutes at 0°-4° C. The pelleted material was suspended in 30 mM Hepes buffer at pH 7.4 containing 5% glycerol, 4 mM benzamidine and 1% Triton X-100, stirred for 1 hour at 0°-4° C., and recentrifuged at 100,000 g for 1 hour at 0°-4° C. The supernatant, containing solubilised receptor tyrosine kinase, was stored in liquid nitrogen.
For test purposes 40 μl of the enzyme solution so obtained was added to a mixture of 400 μl of a mixture of 150 mM Hepes buffer at pH 7.4, 500 μM sodium orthovanadate, 0.1% Triton X-100, 10% glycerol, 200 μl water, 80 μl of 25 mM DTT and 80 µl of a mixture of 12.5 mM manganese chloride, 125 mM magnesium chloride and distilled water. There was thus obtained the test enzyme solution.
Each test compound was dissolved in dimethylsulphoxide (DMSO) to give a 50 mM solution which was diluted with 40 mM Hepes buffer containing 0.1% Triton X-100, 10% glycerol and 10% DMSO to give a 500 μM solution. Equal volumes of this solution and a solution of epidermal growth factor (EGF; 20 μg/ml) were mixed.
[γ-^32 P]ATP (3000 Ci/mM, 250 μCi) was diluted to a volume of 2 ml by the addition of a solution of ATP (100 μM) in distilled water. An equal volume of a 4 mg/ml solution of the peptide Arg-Arg-Leu-Ile-Glu-Asp-Ala-Glu-Tyr-Ala-Ala-Arg-Gly in a mixture of 40 mM Hepes buffer at pH 7.4, 0.1% Triton X-100 and 10% glycerol was added.
The test compound/EGF mixture solution (5 μl) was added to the test enzyme solution (10 μl) and the mixture was incubated at 0°-4° C. for 30 minutes. The ATP/peptide mixture (10 μl) was added and the mixture was incubated at 25° C. for 10 minutes. The phosphorylation reaction was terminated by the addition of 5% trichloroacetic acid (40 μl) and bovine serum albumin (BSA; 1 mg/ml, 5 μl). The mixture was allowed to stand at 4° C. for 30 minutes and then centrifuged. […] Radioactivity present in the filter paper was measured using a liquid scintillation counter (Sequence A). […]
The extent of inhibition was then determined at a range of concentrations of test compound to give an IC50 value.

[1] = system: human naso-pharyngeal cancer cell line KB; test: Test (b): in vitro inhibition of growth of the human naso-pharyngeal cancer cell line KB; format: cell-based; details: KB cells, EGF (10 ng/ml), 3 days, MTT
Description: (b) An in vitro assay which determines the ability of a test compound to inhibit the growth of the human naso-pharyngeal cancer cell line KB.
KB cells were seeded into wells at a density of 1×10^4 -1.5×10^4 cells per well and grown for 24 hours in DMEM supplemented with 5% FCS (charcoal-stripped). Cell growth was determined after incubation for 3 days by the extent of metabolism of MTT tetrazolium dye to furnish a bluish colour. Cell growth was then determined in the presence of EGF (10 ng/ml) or in the presence of EGF (10 ng/ml) and a test compound at a range of concentrations. An IC50 value could then be calculated.

[2] = system: liver hepatocyte growth caused by the administration of the growth factor TGFα; test: Test (c): in vivo inhibition of TGFα-stimulated liver hepatocyte growth in male rats; parameters: species or system rat; details: usually orally, TGFα 400 μg/kg subcutaneously, inhibition of BrdU uptake, approximate ED50
Description: Cell-growth in the control and test animals is determined as follows: On the morning of the day after the dosing of the test compound (or 0.5% polysorbate in the control group), the animals are dosed with bromodeoxyuridine (BrdU; 100 mg/kg intraperitoneally). The animals are killed four hours later and the livers are excised. […] Further tests were carried out using a range of doses of the test compounds to allow the calculation of an approximate ED50 value for the inhibition of liver hepatocyte proliferation as determined by inhibition of the uptake of BrdU.

[3] = system: human mammary carcinoma which expresses epidermal growth factor (EGF) receptor tyrosine kinase; details: athymic nude mice; EGF receptor tyrosine kinase expressing; Toi et al. 1990; cited from earlier work
[4] = system: another carcinoma which does not express EGF receptor tyrosine kinase; details: carcinoma not expressing EGF receptor tyrosine kinase; Toi et al. 1990; cited from earlier work

Row | SMILES | IC50 (receptor tyrosine kinase) [nM] | IC50 ([1]; Homo sapiens, 72 h) [nM] | further results
1 | COc1cc2c(Nc3cccc(C)c3)ncnc2cc1OCCO [7-(2-hydroxyethoxy)-6-methoxy-4-(3'-methylanilino)quinazoline] | 5 | 140 | 
2 | COc1cc2ncnc(Nc3cccc(C(F)(F)F)c3)c2cc1OC [6,7-dimethoxy-4-(3'-trifluoromethylanilino)quinazoline] | 10 | 300 | 
3 | COc1cc2ncnc(Nc3cccc(C)c3)c2cc1OC [6,7-dimethoxy-4-(3'-methylanilino)quinazoline] | 5 | 50 | ED50 ([2]; Rattus norvegicus, Hepatocyte, po): < 5 mg/kg
4 | CC(=O)Nc1ccc2ncnc(Nc3cccc(C)c3)c2c1 [6-acetamido-4-(3'-methylanilino)quinazoline] | 10 | 650 | 
5 | Cc1cccc(Nc2ncnc3ccc(N)cc23)c1 [6-amino-4-(3'-methylanilino)quinazoline] |  |  | IC50 [1]: 1000 nM; ED50 in Test (c) [2]: < 5 mg/kg
6 | O=CN/C=C/c1cc(O)ccc1O [erbstatin] |  |  | growth of transplanted human mammary carcinoma [3]: specifically attenuates the growth; growth of another carcinoma [4]: without effect
